Measured values published in patent publication US8859819B2, “Sulphurated derivatives of resorcinol, preparation of same and cosmetic uses thereof” (Pierre Fabre Dermo-Cosmetique, priority 2009, dated 2014).
Where two headings read alike, the source gives them in different places.

Key:
B16-F10 cells = test: Melanin assay test in B16-F10 cells; type: cell-based, murine
Experimental: B) Melanin Assay Test in B16-F10 Cells:
This involves a test of measuring the synthesis of melanin by colorimetric assay on a murine melanoma cell line: the B16-F10 line. This test makes it possible to evaluate the depigmenting power of active ingredients.
The B16-F10 cells are cultured in 96-well plates in DMEM medium supplemented with FCS (foetal calf serum), and incubated for 24 hours at 37° C., 5% CO2. The cells are then stimulated with 0.1 μM α-MSH (to stimulate the synthesis of melanin, the stimulation observed is around 150%) and treated for 72 hours with the active ingredients to be tested. Each concentration of active ingredient is tested at least in triplicate. The total melanin followed by the intracellular melanin dissolved in the lysis buffer are then assayed by absorbance reading at 405 nm. The total proteins are assayed in the lysate and the results are expressed in mg melanin/mg proteins. The percentage of activity is calculated as follows: […]
A negative value indicates an inhibition, whereas a positive value indicates an induction of the synthesis of melanin.
• B16-F10 cell line between P10 and P20 (murine melanocytes) (ATCC, CRL-6475)
Reagents: • DMEM without phenol red (GibcoBRL, 31053-028), 200 mM Glutamax-I Supplement (GibcoBRL, 35050-038), D-PBS (GibcoBRL, 14190-094), Foetal calf serum (Invitrogen, 10270-098), Trypsine-EDTA (GibcoBRL, 25300-054), NaOH (Sigma, S8045-500G), DMSO (Sigma, 471267-1L), Nle, Phe—Melanocyte Stimulating Hormone (Sigma, M-8764), Melanin (Sigma, M-0418), BCA-Copper (Sigma, B9643 and C2284), BSA (Sigma, P0914) C) Test for the Study of the Antioxidant Capacity by Chemiluminescence (Photochem Analytik Jena) Principle: […]

[1] = Antioxidant capacity by chemiluminescence (Photochem Analytik Jena); details: Trolox equivalent; lower = stronger antioxidant
Experimental: This test is used to determine the antioxidant capacity of the molecules. It is a method that generates free radicals by a photochemical signal. The intensity of the oxidation is 1000 times greater than that obtained under normal conditions.
The detection is carried out by chemiluminescence. It enables the evaluation of hydrosoluble and liposoluble anti-oxidant molecules or extracts.
The results are expressed respectively in equivalent quantity of vitamin C or Trolox (6-hydroxy-2,5,7,8-tetramethylchroman-2-carboxylic acid). The sensitivity is of the order of a nanomole.
The antioxidant activity studied in this test represents the capacity to trap specifically superoxide anions by chemiluminescence.
The quantified results are expressed in Trolox equivalent (standard), i.e. in “μg of product for 1 μg of Trolox”. This signifies that a quantity×of sample is needed to obtain an activity equivalent to the activity detected for 1 μg of standard. It is an anti-oxidant power relative to a reference, which makes it possible to disregard the concentration tested.
The superoxide radical: 02^0− is generated by a photochemical reaction: L+hv (UV)+O2→L*O2→L^0++O2^0−
A part of the superoxide anions is quenched by the anti-oxidants. The remaining free radicals are quantified by chemiluminescence. L^0++O2^0−→N2+AP*^2−→AP^2−+hv (luminescence)

[2] = Protection of linoleic acid following a UV stress (Fenton conditions, MDA-TBA assay); design: % Protection Linoleic acid under UV/Fenton: concentration or dose not given beside the values; details: UV + H2O2 + iron II
Excerpt: D) Test of Protection of Linoleic Acid Following a UV Stress. Target: Protection of Linoleic Acid Under Fenton Conditions, UV Irradiation Linoleic acid belongs to the family of polyunsaturated fatty acids (PUFA) (AGPI). Sensitive to oxidation, linoleic acid is a favoured target for oxygenated free radicals (OFR) in biological media. When biological membranes are exposed to an oxidative stress, the components the most affected are the phospholipids constituted of PUFA and cholesterol. Their degradation leads to lipidic peroxidation and generally to destructuring. Lipidic peroxidation is a self-catalysing process which generally involves OFR. Lipidic peroxidation is in part responsible for skin ageing. The method employed to evaluate lipid peroxidation is based on the coupling of thiobarbituric acid (TBA) and secondary degradation products leading to coloured compounds detectable by spectrofluorometry. The essential secondary compound of final degradation is malondialdehyde, MDA. MDA is a carcinogenic and mutagenic aldehyde, it acts on proteins and DNA. The sample to be tested is placed in contact with linoleic acid in a weight/weight ratio. The sample undergoes an MED (Minimal Erythemal Dose) irradiation under Fenton conditions, namely in the presence of H202 and iron II in a solar simulator. Following irradiation, the reaction mixture is taken up in methanol and derivatised at 90° C. with TBA. Chromogene, the MDA-TBA complex, representative of the equimolar production of MDA is assayed by fluorimetry (excitation at 525 nm, emission at 549 nm). The results are expressed in fluorescence units, as a function of a MDA-TBA control range then expressed as concentration of the MDA-TBA complex. Then, the percentage of the starting MDA/linoleic acid (LA) ratio is determined. Then the percentage of protection of linoleic acid is determined. The product assay is expressed as weight/weight ratio, in other words in weight percentage with respect to the total quantity of linoleic acid. The maximal MDA level is determined by the condition UV+H202+iron II (F). The percentage of protection of linoleic acid represents: the % ratio of MDA under maximal stress conditions untreated over the % of MDA under stress conditions treated by the product.

mushroom tyrosinase = biological target: T1, mushroom tyrosinase (Agaricus bisporus, UniProt C7FF04); test: Tyrosinase inhibition test (in vitro acellular depigmenting activity); type: biochemical; details: for Tyrosinase depigmenting activity result: class symbol, assay from 250 to 150 μM, overall tyrosinase activity (MPMOg), L-tyrosine substrate
T1 construct: purchased Sigma T-3824
T1 sequence (C7FF04 1-392 limits assumed): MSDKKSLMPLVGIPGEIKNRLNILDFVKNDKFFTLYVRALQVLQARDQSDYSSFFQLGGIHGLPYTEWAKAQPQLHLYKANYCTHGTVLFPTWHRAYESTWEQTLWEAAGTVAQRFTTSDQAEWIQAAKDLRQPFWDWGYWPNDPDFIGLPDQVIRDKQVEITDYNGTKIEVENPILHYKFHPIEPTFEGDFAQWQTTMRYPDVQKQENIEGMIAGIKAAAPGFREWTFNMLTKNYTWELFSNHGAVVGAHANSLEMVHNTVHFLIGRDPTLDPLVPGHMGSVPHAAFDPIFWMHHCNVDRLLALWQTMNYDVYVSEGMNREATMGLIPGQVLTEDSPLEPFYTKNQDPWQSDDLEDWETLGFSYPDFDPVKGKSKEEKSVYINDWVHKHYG
Excerpt: A) Determination of the Depigmenting Activity in an in vitro Acellular Test: Tyrosinase Inhibition Test)
This test is used to evaluate the depigmenting activity of the molecules tested. Tyrosinase is a limiting enzyme in melanogenesis.
It belongs to the family of oxydoreductases. It has in particular the function: monophenol monooxygenase (MPMO) and polyphenol oxidase (PPO).
It is synthesised at the level of the melanocytes. It is activated during its migration towards melanosome […]. It transforms tyrosine into DOPA then dopaquinone, which leads in fine to a polymerisation, i.e. a production of pigments (see diagram below).
The substrate: L-tyrosine, is transformed into L-DOPA by the monophenol mono oxygenase function which is transformed by the polyphenol oxidase function from tyrosinase into dopaquinone. The latter is going to self-oxidise into dopachrome which is measured by spectrophotometry at 490 nm.
More precisely, it is the overall tyrosinase activity (MPMOg) which is measured since it is the dopachrome in fine that is assayed. Thus the products tested on MPMOg (=measurement of the activity on PPO and MPMO) can cumulate the inhibition of the 2 functions, • inhibiting uniquely the MPMO function stricto sensus (transformation of tyrosine into DOPA) as a complement to the PPO test, • could inhibit PPO uniquely. General Experimental Conditions:

[3] = Mus musculus, B16-F10, 72 h, read-out: B16 activity results -% at X μM
[4] = Mus musculus, B16-F10, 50 μM, α-MSH stimulated, 72 hours, negative value = inhibition of melanin synthesis, read-out: B16 activity results -% at X μM

Row | Tyrosinase depigmenting activity result (mushroom tyrosinase) | Structure (SMILES) | B16 activity results -% at X μM (B16-F10 cells; 14 μM, α-MSH stimulated, 72 hours, negative value = inhibition) | μg of sample for 1 μg of Trolox [1] | % Protection Linoleic acid under UV/Fenton [2] | inhibition at 20 µM (B16-F10 cells; [3]) | inhibition at 10 µM (B16-F10 cells; [3]) | inhibition at 92 µM (B16-F10 cells; Mus musculus, B16-F10, 92 μM, α-MSH stimulated, 72 hours, negative value = inhibition, read-out: B16 activity results -% at X μM) | inhibition at 50 µM (B16-F10 cells; [4]) | inhibition at 50 µM (B16-F10 cells; [3]) | inhibition at 73 µM (B16-F10 cells; Mus musculus, B16-F10, 73 μM, α-MSH stimulated, 72 hours, negative value = inhibition, read-out: B16 activity results -% at X μM) | IC50 (mushroom tyrosinase)
1 | + + | CC(C)=CCC/C=C(\C)CC/C(C)=C/COc1cc(O)ccc1Sc1ccc(O)cc1O [Example 2, 4-(4-hydroxy-2-((2E,6E)-3,6,11-trimethyldodcca-2,6,10-trienyloxy)phenylthio)benzene-1,3-diol] | −50% (14 μM) | 9.7 μg of sample for 1 μg of Trolox | 92% | – | – | – | – | – | – | –
2 | + + + | CC(C)=CCOc1cc(O)ccc1Sc1ccc(O)cc1O [Example 3, 4-(4-hydroxy-2-(3-methylbut-2-enyloxy)phenylthio)benzene-1,3-diol] | – | 4.7 μg of sample for 1 μg of Trolox | 87% | 41% | – | – | – | – | – | –
3 | + + + | CC(C)=CCC/C(C)=C/COc1cc(O)ccc1Sc1ccc(O)cc1O [Example 4, (E)-4-(2-(3,7-dimethylocta-2,6-dienyloxy)-4-hydroxyphenylthio)benzene-1,3-diol] | – | 5.2 μg of sample for 1 μg of Trolox | 89% | – | 35% | – | – | – | – | –
4 | + + + | CCCCCCCCOc1ccc(Sc2ccc(O)cc2O)c(O)c1 [Example 8, 4-(2-hydroxy-4-(octyloxy)phenylthio)benzene-1,3-diol] | – | 18.8 μg of sample for 1 μg of Trolox | 97% | – | 40% | – | – | – | – | –
5 | + + + | Oc1ccc(Sc2ccc(O)cc2OCc2ccccc2)c(O)c1 [Example 9, 4-(2-(benzyloxy)-4-hydroxyphenylthio)benzene-1,3-diol] | – | 3.2 μg of sample for 1 μg of Trolox | 85% | 31% | – | – | – | – | – | –
6 | + + + | Oc1ccc(Sc2ccc(OCc3ccccc3)cc2O)c(O)c1 [Example 10, 4-(4-(benzyloxy)-2-hydroxyphenylthio)benzene-1,3-diol] | – | 22 μg of sample for 1 μg of Trolox | 94% | 20% | – | – | – | – | – | –
7 | + + + | COc1ccc(COc2cc(O)ccc2Sc2ccc(O)cc2O)cc1 [Example 11, 4-(4-hydroxy-2-(4-methoxybenzyloxy)phenylthio)benzene-1,3-diol] | – | 3.5 μg of sample for 1 μg of Trolox | 91% | 34% | – | – | – | – | – | –
8 | + + | CCCCCCCC(=O)Oc1cc(O)ccc1Sc1ccc(O)cc1O [Example 15, 2-(2,4-dihydroxyphenylthio)-5-hydroxyphenyl octanoate] | – | 30 μg of sample for 1 μg of Trolox | 75% | – | 20% | – | – | – | – | –
9 | + + + | O=C(CCc1ccccc1)Oc1cc(O)ccc1Sc1ccc(O)cc1O [Example 17, 2-(2,4-dihydroxyphenylthio)-5-hydroxyphenyl 3-phenylpropanoate] | – | 3.9 μg of sample for 1 μg of Trolox | 87% | – | – | 50% | – | – | – | –
10 | + + + | O=C(CCc1ccccc1)Oc1ccc(Sc2ccc(O)cc2O)c(O)c1 [Example 18, 4-(2,4-dihydroxyphenylthio)-3-hydroxyphenyl 3-phenylpropanoate] | – | 24.1 μg of sample for 1 μg of Trolox | 90% | – | – | – | 20% | – | – | –
11 | + + + | CC(C)CC(=O)Oc1cc(O)ccc1Sc1ccc(O)cc1O [Example 19, 2-(2,4-dihydroxyphenylthio)-5-hydroxyphenyl 3-methylbutanoate] | – | 2.8 μg of sample for 1 μg of Trolox | 88% | – | – | – | 20% | – | – | –
12 | + + + | CC(C)CC(=O)Oc1ccc(Sc2ccc(O)cc2O)c(O)c1 [Example 20, 4-(2,4-dihydroxyphenylthio)-3-hydroxyphenyl 3-methylbutanoate] | – | 25.6 μg of sample for 1 μg of Trolox | 91% | – | – | – | 24% | – | – | –

Row | Structure (SMILES) | Tyrosinase depigmenting activity result (mushroom tyrosinase) | B16 activity results -% at X μM (B16-F10 cells; 14 μM, α-MSH stimulated, 72 hours, negative value = inhibition) | μg of sample for 1 μg of Trolox [1] | % Protection Linoleic acid under UV/Fenton [2] | inhibition at 20 µM (B16-F10 cells; [3]) | inhibition at 10 µM (B16-F10 cells; [3]) | inhibition at 92 µM (B16-F10 cells; Mus musculus, B16-F10, 92 μM, α-MSH stimulated, 72 hours, negative value = inhibition, read-out: B16 activity results -% at X μM) | inhibition at 50 µM (B16-F10 cells; [4]) | inhibition at 50 µM (B16-F10 cells; [3]) | inhibition at 73 µM (B16-F10 cells; Mus musculus, B16-F10, 73 μM, α-MSH stimulated, 72 hours, negative value = inhibition, read-out: B16 activity results -% at X μM) | IC50 (mushroom tyrosinase)
13 | CCCCCCCCNC(=O)Oc1cc(O)ccc1Sc1ccc(O)cc1O [Example 24, 2-(2,4-dihydroxyphenylthio)-5-hydroxyphenyl octylcarbamate] | + + + | – | 3.8 μg of sample for 1 μg of Trolox | 97% | – | – | – | – | 26% | – | –
14 | [O-][S+](c1ccc(O)cc1O)c1ccc(O)cc1O [Example 25, 4,4′sulphinyldibenzene-1,3-diol] | + + + | – | 73 μg of sample for 1 μg of Trolox | 79% | – | – | – | – | – | 50% | 12 µM
